# Reference: US20030236294A1, “Compounds and methods for inducing apoptosis in proliferating cells” (priority 2002, published 2003)
# What was measured:
# PC-3 cells = assay: Apoptosis induction in PC-3 cells (T1/2, time for 50% apoptotic death; cell viability / Cell Death Detection ELISA); conditions: for T½ (h) 50 μM: time required for eliciting 50% apoptotic death; for change in potency in apoptosis induction on replacement of —SO2NH2 with —CONH2: carboxamide versus sulfonamide counterpart, FIG. 10A; for classification as fast-acting or slow-acting apoptosis inducer: prostate cancer cells, FIG. 8
# Method: Induction of apoptosis was also assessed by using a “Cell Death Detection ELISA” assay (Boehringer-Mannheim) following the manufacturer's instructions. This test is based on the quantitative determination of cytoplasmic histone-associated DNA fragments in the form of mono- and oligonucleosomes after induced apoptotic death. […] Both floating and adherent cells were collected, and cell lysates equivalent to 10^4 cells were used for the ELISA analysis.
# Induction of apoptosis was also assessed by using a “Cell Death Detection ELISA” assay (Boehringer-Mannheim) by following the manufacturer's instructions. This test is based on the quantitative determination of cytoplasmic histone-associated DNA fragments in the form of mono- and oligonucleosomes after induced apoptotic death. […] Both floating and adherent cells were collected, and cell lysates equivalent to 10^4 cells were used in the ELISA.
# Both adherent and floating cells were combined for the assessment of cell viability. Cell viability was determined by trypan blue exclusion.
# LNCaP cells = assay: Apoptosis induction in LNCaP cells; type: cell-based, human; conditions: LNCaP (p53+/+), compared with PC-3; data not shown
# DU-145 cells = assay: Apoptosis induction in DU-145 cells; type: cell-based, human; conditions: DU-145 (p53−/−), compared with PC-3; data not shown
# [1] = test system: Akt and ERK2 phosphorylation in PC-3 cells; assay: Western blot of Akt and ERK2 phosphorylation status; type: cell-based, human
# Method: Immunoblotting For western blot analysis, cells were washed in phosphate-buffered saline (PBS), resuspended in sodium dodecyl sulfate (SDS) gel-loading buffer consisting of 50 mM Tris-HCl, pH 6.8, 100 mM dithiothreitol, 2% SDS, 0.1% bromophenol blue, and 10% glycerol, sonicated with an ultrasonic sonicator for 5 seconds (Virsonic 300, 4.5 output), and boiled for 5 minutes. After a brief centrifugation, equivalent protein amounts (60-100 μg) from the soluble fractions were resolved in 10% SDS-polyacrylamide gels on a Minigel apparatus and transferred to a nitrocellulose membrane in a semidry transfer cell. The transblotted membrane was washed twice with Tris-buffered saline (TBS) containing 0.05% Tween 20 (TBST). After blocking with TBS containing 5% nonfat milk for 60 minutes, the membrane was incubated with the appropriate primary antibody (anti-COX-2, anti-Akt, anti-P-^473Ser Akt, anti-ERK, and anti-phospho-ERK antibodies diluted 1:1,000; anti-actin monoclonal antibody, diluted 1:5,000) in TBS-1% nonfat milk at 4° C. for 12 hours and washed twice with TBST. The membranes were probed with goat anti-rabbit IgG-horseradish peroxidase conjugates (diluted 1:5,000) for 1 hour at room temperature and washed twice with TBST. Bands were visualized by enhanced chemiluminescence.
# Immunoblotting. […]
# PGE2 production = assay: Prostaglandin E2 (PGE2) immunoassay; type: cell-based, human; conditions: 50 μM; 1F2, 3D9, 7D9 cells and parental PC-3 cells; data not shown
# Method: Culture medium was changed, and 24 hours later conditioned medium was collected to assay PGE2. Conditioned medium was centrifuged to remove particulate material, and then cells were collected by scraping to determine the protein concentration. PGE2 was assayed in 100 μL medium in triplicate according to the manufacturer's instruction (R&D Systems, Inc.; Minneapolis, Minn.). PGE2 data were normalized to protein content.
# COX-2 = target: T1, COX-2 (Homo sapiens, UniProt P35354); conditions: Table 1; read-out: IC50 (μM), COX-2 inhibition; cited from earlier work
# T1 sequence (P35354 18-604): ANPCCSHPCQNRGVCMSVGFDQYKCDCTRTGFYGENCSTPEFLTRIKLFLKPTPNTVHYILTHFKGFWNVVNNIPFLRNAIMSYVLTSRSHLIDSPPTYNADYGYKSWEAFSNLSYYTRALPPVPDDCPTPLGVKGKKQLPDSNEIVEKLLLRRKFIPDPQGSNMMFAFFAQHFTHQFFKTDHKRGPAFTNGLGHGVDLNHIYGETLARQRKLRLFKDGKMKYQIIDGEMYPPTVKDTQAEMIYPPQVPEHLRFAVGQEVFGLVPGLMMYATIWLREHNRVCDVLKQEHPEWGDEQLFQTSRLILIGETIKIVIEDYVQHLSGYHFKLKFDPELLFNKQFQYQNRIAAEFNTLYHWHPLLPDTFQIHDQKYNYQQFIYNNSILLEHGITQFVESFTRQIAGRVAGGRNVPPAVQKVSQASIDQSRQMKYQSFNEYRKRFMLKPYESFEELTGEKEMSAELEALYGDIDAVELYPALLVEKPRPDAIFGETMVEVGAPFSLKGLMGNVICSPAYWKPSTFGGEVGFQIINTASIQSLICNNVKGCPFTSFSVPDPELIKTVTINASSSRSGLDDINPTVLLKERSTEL
compound,measurement,setting,value
NS(=O)(=O)c1ccc(-n2nc(C(F)(F)F)cc2-c2ccc(Cl)cc2Cl)cc1 [Example 12],T½ (h) 50 μM,"PC-3 cells; 50 μM, Table 1",2 h
Fc1ccc(F)cc1 [Compound 5b],T½ (h) 50 μM,"PC-3 cells; 50 μM, Table 2",>100 h
"4-[5-(2,5-Dichlorophenyl)-3-(trifluoromethyl)-1H-pyrazol-1-yl]benzene-carboxyamide [Compound 32b]",change in potency in apoptosis induction on replacement of —SO2NH2 with —CONH2,PC-3 cells,no appreciable change
Cc1ccc(C#N)cc1 [Compound 16b],T½ (h) 50 μM,"PC-3 cells; 50 μM, Table 2",>100 h
"Cc1ccc(-c2cc(C(F)(F)F)nn2-c2ccc(S(N)(=O)=O)cc2)cc1 [celecoxib, 4-[5-(4-methylphenyl)-3-(trifluoromethyl)-1H-pyrazol-1-yl]benzenesulfonamide, reference compound]",susceptibility to apoptosis induction,LNCaP cells,susceptibility identical to that of PC-3 cells
same,susceptibility to apoptosis induction,DU-145 cells,susceptibility identical to that of PC-3 cells
same,time to 50% decrease in cell viability,"PC-3 cells; 50 μM, PC-3 cells",2 h
same,T½ (h) 50 μM,"PC-3 cells; 50 μM, Table 2",2 h
same,phosphorylation of Akt and ERK2,[1]; all four antisense COX-2 clones,decreased phosphorylation of Akt and ERK2
"NS(=O)(=O)c1ccc(-n2nc(C(F)(F)F)cc2-c2ccc(Cl)cc2)cc1 [1a, 4-[5-(4-Chlorophenyl)-3-(trifluoromethyl)-1H-pyrazol-1-yl]benzenesulfonamide]",susceptibility to apoptosis induction,LNCaP cells,susceptibility identical to that of PC-3 cells
same,susceptibility to apoptosis induction,DU-145 cells,susceptibility identical to that of PC-3 cells
same,phosphorylation status of Akt and ERK2,[1]; PC-3 cells,concurrent dephosphorylation of Akt and ERK2
COc1ccc(C)c(OC)c1 [Compound 22b],T½ (h) 50 μM,"PC-3 cells; 50 μM, Table 2",>100 h
Cc1cc(Cl)sc1Cl [Compound 29b],T½ (h) 50 μM,"PC-3 cells; 50 μM, Table 2",>100 h
Cc1ccc(C)c(C)c1 [Compound 21b],T½ (h) 50 μM,"PC-3 cells; 50 μM, Table 2",2 h
"CS(=O)(=O)c1ccc(C2=C(c3ccccc3)C(=O)OC2)cc1 [rofecoxib, reference compound]",PGE2 production,PGE2 production,reduced to the same extent
same,classification as fast-acting or slow-acting apoptosis inducer,PC-3 cells,slow-acting apoptosis inducer
"CS(=O)(=O)Nc1ccc([N+](=O)[O-])cc1OC1CCCCC1 [NS398, reference compound]",PGE2 production,PGE2 production,reduced to the same extent
same,classification as fast-acting or slow-acting apoptosis inducer,PC-3 cells,slow-acting apoptosis inducer
"4-[5-(2,4-Dimethylphenyl)-3-(trifluoromethyl)-1H-pyrazol-1-yl]benzene-carboxyamide [Compound 37b]",change in potency in apoptosis induction on replacement of —SO2NH2 with —CONH2,PC-3 cells,no appreciable change
"4-[5-(2,4-Dichlorophenyl)-3-(trifluoromethyl)-1H-pyrazol-1-yl]benzene-carboxyamide [Compound 31b]",change in potency in apoptosis induction on replacement of —SO2NH2 with —CONH2,PC-3 cells,no appreciable change
Cc1ccco1 [Compound 26b],T½ (h) 50 μM,"PC-3 cells; 50 μM, Table 2",>100 h
Cc1ccc(F)cc1F [Compound 4b],T½ (h) 50 μM,"PC-3 cells; 50 μM, Table 2",>100 h
"4-[5-(3,4-Dichlorophenyl)-3-(trifluoromethyl)-1H-pyrazol-1-yl]benzene-carboxyamide [Compound 33b]",change in potency in apoptosis induction on replacement of —SO2NH2 with —CONH2,PC-3 cells,no appreciable change
Cc1ccc(-c2ccnn2-c2ccc(S(N)(=O)=O)cc2)cc1 [Compound 40b],activity in eliciting apoptosis in PC-3 cells (in words),PC-3 cells; PC-3 cells,loss of high potency
Cc1ccc(C)c(-c2cc(C(F)(F)F)nn2-c2ccc(S(N)(=O)=O)cc2)c1 [Example 7],IC50,COX-2,> 100 µM
same,T½ (h) 50 μM,"PC-3 cells; 50 μM, Table 1",1 h
NS(=O)(=O)c1ccc(-n2nc(C(F)(F)F)cc2-c2cc(Cl)ccc2Cl)cc1 [Example 5],T½ (h) 50 μM,"PC-3 cells; 50 μM, Table 1",3 h
COc1ccc(OC)c(C)c1 [Compound 23b],T½ (h) 50 μM,"PC-3 cells; 50 μM, Table 2",>100 h
"CS(=O)(=O)c1ccc(C2=C(c3ccccc3)COC2=O)cc1 [Compound 47b, 3-(4′-methylsulfonylphenyl)-4-phenyl-2(5H)-furanone]",activity in eliciting apoptosis in PC-3 cells (in words),PC-3 cells; PC-3 cells,poor activity
"NS(=O)(=O)c1ccc(C2=C(c3ccc(Cl)c(Cl)c3)COC2=O)cc1 [Compound 49b, 3-(4-sulfamoylphenyl)-4-(3′,4′-dichlorophenyl)-2(5H)-furanone]",T1/2 at 50 μM,"PC-3 cells; 50 μM, PC-3 cells",15 h
Cc1cccs1 [Compound 27b],T½ (h) 50 μM,"PC-3 cells; 50 μM, Table 2",>100 h
NS(=O)(=O)c1ccc(-n2nc(C(F)(F)F)cc2-c2ccccc2Cl)cc1 [Example 13],T½ (h) 50 μM,"PC-3 cells; 50 μM, Table 1",4 h
Cc1ccc(-c2cc(C(F)(F)F)nn2-c2ccc(S(N)(=O)=O)cc2)c(C)c1 [Example 9],T½ (h) 50 μM,"PC-3 cells; 50 μM, Table 1",2 h
"Cc1ccc(C)c(-c2cc(C(F)(F)F)nn2-c2ccc(S(N)(=O)=O)cc2)c1 [compound 7a, 4-[5-(2,5-dimethylphenyl)-3-(trifluoromethyl)-1H-pyrazol-1-yl]benzenesulfonamide]",time to 50% decrease in cell viability,"PC-3 cells; 50 μM, PC-3 cells",within an hour
